What was measured:
[1] = tested on: Bacteroides eggerthii DSM 20697; assay: Antimicrobial activity against Bacteroides eggerthii ATCC 27754 by agar dilution method in presence of 5% laked sheep blood; type: functional
[2] = Antimicrobial activity against Bifidobacterium longum subsp. longum ATCC 15707 by agar dilution method in presence of 5% laked sheep blood; type: functional
Veillonella parvula = assay: Antimicrobial activity against Veillonella parvula ATCC 10790 by agar dilution method in presence of 5% laked sheep blood; type: functional
[3] = tested on: Bacteroides thetaiotaomicron; assay: Antimicrobial activity against Bacteroides thetaiotaomicron ATCC 29741 by agar dilution method in presence of 5% laked sheep blood; type: functional
Bacteroides fragilis [4] = assay: Antimicrobial activity against carbapenemase-producing Bacteroides fragilis GAI 30079 by agar dilution method in presence of 5% laked sheep blood; type: functional
Prevotella bivia = assay: Antimicrobial activity against Prevotella bivia ATCC 29303 by agar dilution method in presence of 5% laked sheep blood; type: functional; conditions: DSM 20514
[5] = tested on: Bifidobacterium pseudolongum; assay: Antimicrobial activity against Bifidobacterium pseudolongum ATCC 25526 by agar dilution method in presence of 5% laked sheep blood; type: functional
Clostridium septicum = assay: Antimicrobial activity against Clostridium septicum ATCC 12464 by agar dilution method in presence of 5% laked sheep blood; type: functional
Lactobacillus salivarius = assay: Antimicrobial activity against Lactobacillus salivarius subsp. salivarius JCM 1231 by agar dilution method in presence of 5% laked sheep blood; type: functional; conditions: Ligilactobacillus salivarius
[6] = tested on: Peptostreptococcus anaerobius; assay: Antimicrobial activity against Peptostreptococcus anaerobius ATCC 27337 by agar dilution method in presence of 5% laked sheep blood; type: functional
Hoylesella oralis = assay: Antimicrobial activity against Prevotella oralis ATCC 33269 by agar dilution method in presence of 5% laked sheep blood; type: functional
Lacticaseibacillus casei = assay: Antimicrobial activity against Lactobacillus casei subsp. casei JCM 1134 by agar dilution method in presence of 5% laked sheep blood; type: functional
Porphyromonas gingivalis = assay: Antimicrobial activity against Porphyromonas gingivalis ATCC 33277 by agar dilution method in presence of 5% laked sheep blood; type: functional
Schaalia odontolytica = assay: Antimicrobial activity against Actinomyces odontolyticus GAI 91002 by agar dilution method in presence of 5% laked sheep blood; type: functional
Anaerococcus prevotii = assay: Antimicrobial activity against Anaerococcus prevotii ATCC 9321 by agar dilution method in presence of 5% laked sheep blood; type: functional
[7] = tested on: Propionibacterium granulosum; assay: Antimicrobial activity against Propionibacterium granulosum ATCC 25564 by agar dilution method in presence of 5% laked sheep blood; type: functional; conditions: Cutibacterium granulosum
[8] = tested on: Peptoniphilus asaccharolyticus; assay: Antimicrobial activity against Peptoniphilus asaccharolyticus WAL 3218 by agar dilution method in presence of 5% laked sheep blood; type: functional
[9] = tested on: Limosilactobacillus fermentum; assay: Antimicrobial activity against Lactobacillus fermentum JCM 1173 by agar dilution method in presence of 5% laked sheep blood; type: functional
Bilophila wadsworthia = assay: Antimicrobial activity against Bilophila wadsworthia WAL 7959 by agar dilution method in presence of 5% laked sheep blood; type: functional
Bacteroides fragilis [10] = assay: Antimicrobial activity against carbapenemase-producing Bacteroides fragilis GAI 30144 by agar dilution method in presence of 5% laked sheep blood; type: functional
Gemella morbillorum = assay: Antimicrobial activity against Gemella morbillorum ATCC 27824 by agar dilution method in presence of 5% laked sheep blood; type: functional
Prevotella intermedia = assay: Antimicrobial activity against Prevotella intermedia ATCC 25611 by agar dilution method in presence of 5% laked sheep blood; type: functional
[11] = tested on: Bacteroides heparinolyticus; assay: Antimicrobial activity against Prevotella heparinolytica ATCC 35895 by agar dilution method in presence of 5% laked sheep blood; type: functional
Bifidobacterium bifidum = assay: Antimicrobial activity against Bifidobacterium bifidum JCM 1255 by agar dilution method in presence of 5% laked sheep blood; type: functional
Thomasclavelia ramosa = assay: Antimicrobial activity against Clostridium ramosum ATCC 25582 by agar dilution method in presence of 5% laked sheep blood; type: functional
Fusobacterium varium = assay: Antimicrobial activity against Fusobacterium varium ATCC 8501 by agar dilution method in presence of 5% laked sheep blood; type: functional
Lactobacillus brevis = assay: Antimicrobial activity against Lactobacillus brevis subsp. brevis JCM 1059 by agar dilution method in presence of 5% laked sheep blood; type: functional; conditions: Levilactobacillus brevis
Peptoniphilus indolicus = assay: Antimicrobial activity against Peptoniphilus indolicus GAI 0915 by agar dilution method in presence of 5% laked sheep blood; type: functional
Bacteroides fragilis [12] = assay: Antimicrobial activity against Bacteroides fragilis NCTC 10581 by agar dilution method in presence of 5% laked sheep blood; type: functional
Prevotella corporis = assay: Antimicrobial activity against Prevotella corporis GAI 91000 by agar dilution method in presence of 5% laked sheep blood; type: functional
[13] = tested on: Streptococcus intermedius; assay: Antimicrobial activity against Streptococcus intermedius ATCC 27335 by agar dilution method in presence of 5% laked sheep blood; type: functional
[14] = tested on: Campylobacter ureolyticus; assay: Antimicrobial activity against Bacteroides ureolyticus NCTC 10941 by agar dilution method in presence of 5% laked sheep blood; type: functional
[15] = tested on: Enterocloster clostridioformis; assay: Antimicrobial activity against Clostridium clostridioforme NCTC 11224 by agar dilution method in presence of 5% laked sheep blood; type: functional
[16] = tested on: Porphyromonas asaccharolytica; assay: Antimicrobial activity against Porphyromonas asaccharolyticus ATCC 25260 by agar dilution method in presence of 5% laked sheep blood; type: functional; conditions: DSM 20707
Prevotella oris = assay: Antimicrobial activity against Prevotella oris ATCC 33573 by agar dilution method in presence of 5% laked sheep blood; type: functional; conditions: Segatella oris
[17] = tested on: Lactobacillus acidophilus; assay: Antimicrobial activity against Lactobacillus acidophilus JCM 1132 by agar dilution method in presence of 5% laked sheep blood; type: functional
[18] = tested on: Desulfovibrio desulfuricans; assay: Antimicrobial activity against Desulfovibrio desulfuricans ATCC 29577 by agar dilution method in presence of 5% laked sheep blood; type: functional
[19] = Antimicrobial activity against Finegoldia magna ATCC 29328 by agar dilution method in presence of 5% laked sheep blood; type: functional
Capnocytophaga ochracea = assay: Antimicrobial activity against Capnocytophaga ochracea GAI 5586 by agar dilution method in presence of 5% laked sheep blood; type: functional
Parvimonas micra = assay: Antimicrobial activity against Parvimonas micra VPI 5464-1 by agar dilution method in presence of 5% laked sheep blood; type: functional
Prevotella buccae = assay: Antimicrobial activity against Prevotella buccae ATCC 33574 by agar dilution method in presence of 5% laked sheep blood; type: functional; conditions: Segatella buccae
Bacteroides fragilis [20] = assay: Antimicrobial activity against Bacteroides fragilis GAI 0558 by agar dilution method in presence of 5% laked sheep blood; type: functional
Bacteroides fragilis [21] = assay: Antimicrobial activity against Bacteroides fragilis ATCC 25285 by agar dilution method in presence of 5% laked sheep blood; type: functional; conditions: NCTC 9343
Phocaeicola vulgatus = assay: Antimicrobial activity against Bacteroides vulgatus GAI 0673 by agar dilution method in presence of 5% laked sheep blood; type: functional
[22] = Antimicrobial activity against Desulfovibrio piger DSM 749 by agar dilution method in presence of 5% laked sheep blood; type: functional, Desulfovibrio piger ATCC 29098
Bacteroides fragilis [23] = assay: Antimicrobial activity against Bacteroides fragilis GAI 7955 by agar dilution method in presence of 5% laked sheep blood; type: functional

Compound: CC(=N)N1CC[C@H](SC2=C(C(=O)O)N3C(=O)[C@H]([C@@H](C)O)[C@H]3C2)C1
- MIC [1]: 0.25 µg/mL
- MIC [2]: 1 µg/mL
- MIC (Veillonella parvula): 0.125 µg/mL
- MIC [3]: 0.5 µg/mL
- MIC (Bacteroides fragilis [4]): > 128 µg/mL
- MIC (Prevotella bivia): 0.5 µg/mL
- MIC [5]: 0.25 µg/mL
- MIC (Clostridium septicum): ≤ 0.015 µg/mL
- MIC (Lactobacillus salivarius): 0.25 µg/mL
- MIC [6]: 0.125 µg/mL
- MIC (Hoylesella oralis): 0.06 µg/mL
- MIC (Lacticaseibacillus casei): 0.5 µg/mL
- MIC (Porphyromonas gingivalis): 0.03 µg/mL
- MIC (Schaalia odontolytica): 0.5 µg/mL
- MIC (Anaerococcus prevotii): 0.125 µg/mL
- MIC [7]: 0.125 µg/mL
- MIC [8]: 0.25 µg/mL
- MIC [9]: 0.03 µg/mL
- MIC (Bilophila wadsworthia): 0.5 µg/mL
- MIC (Bacteroides fragilis [10]): > 128 µg/mL
- MIC (Gemella morbillorum): ≤ 0.015 µg/mL
- MIC (Prevotella intermedia): 0.06 µg/mL
- MIC [11]: 0.125 µg/mL
- MIC (Bifidobacterium bifidum): 0.06 µg/mL
- MIC (Thomasclavelia ramosa): 0.25 µg/mL
- MIC (Fusobacterium varium): 4 µg/mL
- MIC (Lactobacillus brevis): 0.03 µg/mL
- MIC (Peptoniphilus indolicus): 0.125 µg/mL
- MIC (Bacteroides fragilis [12]): 0.25 µg/mL
- MIC (Prevotella corporis): 0.125 µg/mL
- MIC [13]: 0.25 µg/mL
- MIC [14]: 0.25 µg/mL
- MIC [15]: 0.25 µg/mL
- MIC [16]: 0.03 µg/mL
- MIC (Prevotella oris): 0.06 µg/mL
- MIC [17]: 0.25 µg/mL
- MIC [18]: 0.5 µg/mL
- MIC [19]: 0.25 µg/mL
- MIC (Capnocytophaga ochracea): 0.125 µg/mL
- MIC (Parvimonas micra): 0.125 µg/mL
- MIC (Prevotella buccae): 0.25 µg/mL
- MIC (Bacteroides fragilis [20]): 0.5 µg/mL
- MIC (Bacteroides fragilis [21]): 0.25 µg/mL
- MIC (Phocaeicola vulgatus): 0.125 µg/mL
- MIC [22]: 0.125 µg/mL
- MIC (Bacteroides fragilis [23]): 4 µg/mL

Compound: C[C@@H](O)[C@H]1C(=O)N2C(C(=O)O)=C(S[C@@H]3CN[C@H](CNS(N)(=O)=O)C3)[C@H](C)[C@H]12 [DORIPENEM]
- MIC [1]: 0.25 µg/mL
- MIC [2]: 1 µg/mL
- MIC (Veillonella parvula): 0.06 µg/mL
- MIC [3]: 0.5 µg/mL
- MIC (Bacteroides fragilis [4]): > 128 µg/mL
- MIC (Prevotella bivia): 0.5 µg/mL
- MIC [5]: 0.5 µg/mL
- MIC (Clostridium septicum): 0.06 µg/mL
- MIC (Lactobacillus salivarius): 0.5 µg/mL
- MIC [6]: 0.5 µg/mL
- MIC (Hoylesella oralis): 0.06 µg/mL
- MIC (Lacticaseibacillus casei): 1 µg/mL
- MIC (Porphyromonas gingivalis): ≤ 0.015 µg/mL
- MIC (Schaalia odontolytica): 0.25 µg/mL
- MIC (Anaerococcus prevotii): 0.25 µg/mL
- MIC [7]: 0.5 µg/mL
- MIC [8]: 0.03 µg/mL
- MIC [9]: 0.06 µg/mL
- MIC (Bilophila wadsworthia): 0.06 µg/mL
- MIC (Bacteroides fragilis [10]): > 128 µg/mL
- MIC (Gemella morbillorum): ≤ 0.015 µg/mL
- MIC (Prevotella intermedia): 0.06 µg/mL
- MIC [11]: 0.06 µg/mL
- MIC (Bifidobacterium bifidum): 0.125 µg/mL
- MIC (Thomasclavelia ramosa): 1 µg/mL
- MIC (Fusobacterium varium): 0.5 µg/mL
- MIC (Lactobacillus brevis): 0.125 µg/mL
- MIC (Peptoniphilus indolicus): ≤ 0.015 µg/mL
- MIC (Bacteroides fragilis [12]): 0.5 µg/mL
- MIC (Prevotella corporis): 0.125 µg/mL
- MIC [13]: 0.125 µg/mL
- MIC [14]: 0.06 µg/mL
- MIC [15]: 0.25 µg/mL
- MIC [16]: 0.03 µg/mL
- MIC (Prevotella oris): 0.125 µg/mL
- MIC [17]: 0.125 µg/mL
- MIC [18]: 0.125 µg/mL
- MIC [19]: 0.25 µg/mL
- MIC (Capnocytophaga ochracea): 0.125 µg/mL
- MIC (Parvimonas micra): 0.125 µg/mL
- MIC (Prevotella buccae): 0.25 µg/mL
- MIC (Bacteroides fragilis [20]): 0.5 µg/mL
- MIC (Bacteroides fragilis [21]): 0.5 µg/mL
- MIC (Phocaeicola vulgatus): 0.25 µg/mL
- MIC [22]: 0.06 µg/mL
- MIC (Bacteroides fragilis [23]): 2 µg/mL
